Test results reported in patent US12312359B2 (Vitae Pharmaceuticals, LLC, priority 2016, dated 2025).

Legend:
[1] = tested on: human acute monocytic leukemia cell line MV-4-11; test: Assay 2: cell proliferation assay (ATP quantitation, CellTiter-Glo), MV-4-11; type: cell-based; settings: MV-4-11 cells
Description: Potencies of inhibitor compounds against cell proliferation was assessed against the human acute monocytic leukemia cell line MV-4-11 (ATCC® CRL-9591™) based on ATP quantitation. MV-4-11 cells or toxicity control HL-60 cells (ATCC® CCL-240™) were incubated in 96-well tissue culture plates (1.67×10^4 cells in 200 μL culture media containing 10% FBS per well) with or without test compound for 72 h at 37° C., 5% CO2. After incubation, each well was mixed by pipetting and 95 μL from each well was transferred to a well in 96-well black OptiPlate® plates (PerkinElmer). An equal volume of CellTiter-Glo® Luminescent Cell Viability Assay reagent (Promega) was added to each well, followed by mixing for 5 min on an orbital plate shaker. Luminescence was measured on a Wallac EnVision 2104 Multilabel Reader (PerkinElmer) to quantitate ATP.

[2] = molecular target: T1, biotinylated wild-type menin and MLL-AF9 fusion protein (menin/MLL binding) (Homo sapiens, UniProt O00255); test: Assay 1: menin/MLL binding AlphaLISA assay, wild-type menin; settings: Table 30; column head does not say wild-type or mutated menin
T1 construct: made in house; host or cells: menin: E. coli; MLL-AF9-FLAG: HEK293 cells, used as cleared lysate
T1 sequence (O00255 1-610): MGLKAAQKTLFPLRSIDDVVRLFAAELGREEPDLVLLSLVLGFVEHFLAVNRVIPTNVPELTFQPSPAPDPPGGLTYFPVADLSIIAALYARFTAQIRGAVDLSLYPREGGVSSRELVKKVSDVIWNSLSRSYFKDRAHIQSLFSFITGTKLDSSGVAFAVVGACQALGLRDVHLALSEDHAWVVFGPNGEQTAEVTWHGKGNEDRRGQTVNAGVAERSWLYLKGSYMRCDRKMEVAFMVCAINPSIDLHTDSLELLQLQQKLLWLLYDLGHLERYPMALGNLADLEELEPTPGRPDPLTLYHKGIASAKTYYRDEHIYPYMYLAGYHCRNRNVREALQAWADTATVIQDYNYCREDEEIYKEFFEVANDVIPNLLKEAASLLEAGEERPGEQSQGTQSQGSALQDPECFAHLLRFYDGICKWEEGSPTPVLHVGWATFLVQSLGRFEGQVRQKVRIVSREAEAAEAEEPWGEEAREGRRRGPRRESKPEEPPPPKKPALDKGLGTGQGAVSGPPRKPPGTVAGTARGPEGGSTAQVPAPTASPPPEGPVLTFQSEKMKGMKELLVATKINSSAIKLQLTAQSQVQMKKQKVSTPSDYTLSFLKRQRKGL
Summary of the method: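 Compound was preincubated 30 min at room temperature with biotinylated menin (5 nM) and MLL-AF9-FLAG lysate from HEK293 cells, pH 7.4 buffer with 5% DMSO and DTT. Bead-based Alpha signal after 60 min with streptavidin donor and anti-FLAG acceptor beads; four-parameter logistic fit gave IC50.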

Row | SMILES | EC50 ([1]; 72 h) | IC50 [2] | EC50 ([1]; Homo sapiens, MV4-11, 72 h)
1 | CC(C)N(C)C(=O)c1cc(F)ccc1Oc1cncnc1N1CCC2(CCN(Cc3ccc(N4CCOC4=O)cc3)C2)C1 (stereo not shown) [Example 142, 5-fluoro-N-isopropyl-N-methyl-2-((4-(7-(4-(2-oxooxazolidin-3-yl)benzyl)-2,7-diazaspiro[4.4]nonan-2-yl)pyrimidin-5-yl)oxy)benzamide] | ≥ 1000 nM | < 100 nM | –
2 | CCN(C(=O)C(C)C)c1cc(F)ccc1Oc1cncnc1N1CC2(CN(C(=O)C3Cc4ccc(Br)cc4C3)C2)C1 (stereo not shown) [Example 120, N-(2-((4-(6-(5-bromo-2,3-dihydro-1H-indene-2-carbonyl)-2,6-diazaspiro [3.3]heptan-2-yl)pyrimidin-5-yl)oxy)-5-fluorophenyl)-N-ethylisobutyramide] | – | < 100 nM | < 100 nM
3 | COCCn1c(=O)[nH]c2cc(CN3CCC4(CCN(c5ncncc5Oc5ccc(F)cc5C(=O)N(C)C(C)C)C4)C3)ccc21 (stereo not shown) [Example 129, 5-fluoro-N-isopropyl-2-((4-(7-((1-(2-methoxyethyl)-2-oxo-2,3-dihydro-1H-benzo[d]imidazol-5-yl)methyl)-2,7-diazaspiro[4.4]nonan-2-yl)pyrimidin-5-yl)oxy)-N-methyl-benzamide] | – | < 100 nM | 100 to 1000 nM
4 | CC(C)N(C)C(=O)c1cc(F)ccc1Oc1cncnc1N1CCC2(CCN(Cc3ccc4c(c3)[nH]c(=O)n4CCN(C)C)C2)C1 (stereo not shown) [Example 124, 2-((4-(7-((1-(2-(dimethylamino)ethyl)-2-oxo-2,3-dihydro-1H-benzo[d]imidazol-5-yl)methyl)-2,7-diazaspiro[4.4]nonan-2-yl)pyrimidin-5-yl)oxy)-5-fluoro-N-isopropyl-N-methylbenzamide] | – | < 100 nM | 100 to 1000 nM
5 | CC(C)c1ncncc1-c1cc(F)ccc1Oc1cncnc1N1CC2(CC(NC3CCC(C)(C#N)CC3)C2)C1 (single isomer, unassigned) [Example 148A, 4-((2-(5-(4-fluoro-2-(4-isopropylpyrimidin-5-yl)phenoxy)pyrimidin-4-yl)-2-azaspiro[3.3]heptan-6-yl)amino)-1-methylcyclohexane carbonitrile] | – | < 100 nM | 100 to 1000 nM
6 | CC1(C)C(=O)Nc2cc(CN3CCC4(CCN(c5ncncc5Oc5ccc(F)cc5OC5CCCC5)C4)C3)ccc21 (stereo not shown) [Example 193, 6-((7-(5-(2-(cyclopentyloxy)-4-fluorophenoxy)pyrimidin-4-yl)-2,7-diazaspiro[4.4]nonan-2-yl)methyl)-3,3-dimethylindolin-2-one] | – | < 100 nM | < 100 nM
7 | COC(C)c1ccccc1-c1cc(F)ccc1Oc1cncnc1N1CC2(CN(CC3CCOCC3)C2)C1 (stereo not shown) [Example 67, 2-(5-((5-fluoro-2′-(1-methoxyethyl)-[1,1′-biphenyl]-2-yl)oxy)pyrimidin-4-yl)-6-((tetrahydro-2H-pyran-4-yl)methyl)-2,6-diazaspiro[3.3]heptane] | – | < 100 nM | 100 to 1000 nM
8 | CC(C)CCc1cc(F)ccc1Oc1cncnc1N1CCC2(CCN(Cc3ccc4[nH]c(=O)[nH]c4c3)C2)C1 (stereo not shown) [Example 235, 5-((7-(5-(4-fluoro-2-isopentylphenoxy)pyrimidin-4-yl)-2,7-diazaspiro[4.4]nonan-2-yl)methyl)-1,3-dihydro-2H-benzo[d]imidazol-2-one] | – | < 100 nM | 100 to 1000 nM
9 | CC(C)c1ncncc1-c1cc(F)ccc1Oc1cncnc1N1CC2(CC(NCC3CCC(C)(C#N)CC3)C2)C1 (stereo not shown) [Example 140, 4-(((2-(5-(4-fluoro-2-(4-isopropylpyrimidin-5-yl)phenoxy)pyrimidin-4-yl)-2-azaspiro[3.3]heptan-6-yl)amino)methyl)-1-methylcyclohexane-1-carbonitrile] | – | < 100 nM | 100 to 1000 nM
10 | CC(C)N(C(=O)c1cc(F)ccc1Oc1cncnc1N1CCC2(CC(O)C(Cc3ccc4[nH]c(=O)[nH]c4c3)C2)C1)C(C)C (single isomer, unassigned) [Example 23A, 5-fluoro-2-((4-(7-hydroxy-8-((2-oxo-2,3-dihydro-1H-benzo[d]imidazol-5-yl)methyl)-2-azaspiro[4.4]nonan-2-yl)pyrimidin-5-yl)oxy)-N,N-diisopropylbenzamide] | 100 to 1000 nM | < 100 nM | –
11 | Cn1c(-c2cc(F)ccc2Oc2cncnc2N2CCC3(CCN(Cc4ccc5[nH]c(=O)[nH]c5c4)C3)C2)c(C2CC2)ccc1=O (single isomer, unassigned) [Example 29A, 5-((7-(5-(2-(3-cyclopropyl-1-methyl-6-oxo-1,6-dihydropyridin-2-yl)-4-fluorophenoxy)pyrimidin-4-yl)-2,7-diazaspiro[4.4]nonan-2-yl)methyl)-1,3-dihydro-2H-benzo[d]imidazol-2-one] | – | < 100 nM | < 100 nM
12 | CC(C)c1ncncc1-c1cc(F)ccc1Oc1cnccc1N1CCC2(CCN(Cc3ccc4[nH]c(=O)[nH]c4c3)C2)C1 (stereo not shown) [Example 28, 5-((7-(3-(4-fluoro-2-(4-isopropylpyrimidin-5-yl)phenoxy)pyridin-4-yl)-2,7-diazaspiro[4.4]nonan-2-yl)methyl)-1,3-dihydro-2H-benzo[d]imidazol-2-one] | – | < 100 nM | < 100 nM
13 | CCN(C(=O)c1cc(F)ccc1Oc1cncnc1N1CC2(CCN(C[C@H]3CC[C@H](NS(C)(=O)=O)CC3)CC2)C1)C(C)C [Example 238, N-ethyl-5-fluoro-N-isopropyl-2-((4-(7-(((1r,4r)-4-(methylsulfonamido)cyclohexyl)methyl)-2,7-diazaspiro[3.5]nonan-2-yl)pyrimidin-5-yl)oxy)benzamide] | – | < 100 nM | < 100 nM
14 | CC(O)c1ccccc1-c1cc(F)ccc1Oc1cncnc1N1CCC2(CCN(Cc3ccc4[nH]c(=O)[nH]c4c3)C2)C1 (single isomer, unassigned) [Example 60A, 5-((7-(5-((5-fluoro-2′-(1-hydroxyethyl)-[1,1′-biphenyl]-2-yl)oxy)pyrimidin-4-yl)-2,7-diazaspiro[4.4]nonan-2-yl)methyl)-1H-benzo[d]imidazol-2(3H)-one] | – | < 100 nM | < 100 nM
15 | CC(C)N(C(=O)c1cc(F)ccc1Oc1cncnc1N1CCC2(CCC(N)(Cc3ccc(C#N)cc3)C2)C1)C(C)C (single isomer, unassigned) [Example 22A, 2-((4-(7-amino-7-(4-cyanobenzyl)-2-azaspiro[4.4]nonan-2-yl)pyrimidin-5-yl)oxy)-5-fluoro-N,N-diisopropylbenzamide] | – | < 100 nM | ≥ 1000 nM
16 | CC(C)N(C(=O)c1cc(F)ccc1Oc1cncnc1N1CCC2(CC(N)C(Cc3ccc4[nH]c(=O)[nH]c4c3)C2)C1)C(C)C (single isomer, unassigned) [Example 24A, 2-((4-(7-amino-8-((2-oxo-2,3-dihydro-1H-benzo[d]imidazol-5-yl)methyl)-2-azaspiro[4.4]nonan-2-yl)pyrimidin-5-yl)oxy)-5-fluoro-N,N-diisopropylbenzamide] | – | < 100 nM | ≥ 1000 nM
17 | N#Cc1ccc(-c2cc(F)ccc2Oc2cncnc2N2CCC3(CCN(Cc4ccc5[nH]c(=O)[nH]c5c4)C3)C2)c(C2CC2)c1 (racemic) [Example 42, 2-cyclopropyl-5′-fluoro-2′-((4-(7-((2-oxo-2,3-dihydro-1H-benzo[d]imidazol-5-yl)methyl)-2,7-diazaspiro[4.4]nonan-2-yl)pyrimidin-5-yl)oxy)-[1,1′-biphenyl]-4-carbonitrile] | – | < 100 nM | < 100 nM
18 | O=C(c1cc(F)ccc1Oc1cncnc1N1CCC2(CCN(Cc3ccc4[nH]c(=O)[nH]c4c3)C2)C1)N1CCCC1 (stereo not shown) [Example 154, 5-((7-(5-(4-fluoro-2-(pyrrolidine-1-carbonyl)phenoxy)pyrimidin-4-yl)-2,7-diazaspiro [4.4]nonan-2-yl)methyl)-1,3-dihydro-2H-benzo[d]imidazol-2-one] | – | < 100 nM | 100 to 1000 nM
19 | CCN(C(=O)C(C)C)c1cc(F)ccc1Oc1cncnc1N1CC2(CCN(CC3CCOCC3)CC2)C1 [Example 110, N-ethyl-N-(5-fluoro-2-((4-(7-((tetrahydro-2H-pyran-4-yl)methyl)-2,7-diazaspiro[3.5]nonan-2-yl)pyrimidin-5-yl)oxy)phenyl)iso-butyramide] | – | < 100 nM | 100 to 1000 nM
20 | CC1CCCN1C(=O)c1cc(F)ccc1Oc1cncnc1N1CCC2(CCN(Cc3ccc4[nH]c(=O)[nH]c4c3)C2)C1 (stereo not shown) [Example 211, 5-((7-(5-(4-fluoro-2-(2-methylpyrrolidine-1-carbonyl)phenoxy)pyrimidin-4-yl)-2,7-diazaspiro[4.4]nonan-2-yl)methyl)-1,3-dihydro-2H-benzo [d]imidazol-2-one] | – | < 100 nM | 100 to 1000 nM
